The compounds below were run on IL-2 secretion by Jurkat T cells (assay: Inhibition of IL-2 secretion). Details: Homo sapiens; Jurkat T cells stimulated with PHA, 20 to 24 hours, IL-2 by ELISA.
Assay type: cell-based
Method: The CRAC channel modulatory activity of the compounds were thus evaluated by measuring the secretion of IL-2 by antigen stimulated T-cells in vitro. Alternatively, such activity can also be evaluated by assay methods known to one skilled in the art.
Inhibition of IL-2 secretion: Jurkat T cells were seeded at a density of 0.5 to 1 million cells per well in RPMI medium. Test compounds from this invention were added to the cells at different concentrations. This was followed by the addition of PHA, a T cell mitogen after 10 minutes. The cells were then incubated for 20 to 24 hours in a CO2 incubator at 37° C. After incubation with the compounds, cells were centrifuged, the supernatant was collected and processed for ELISA to quantitate the amount of IL-2 secreted. A commercial ELISA kit (R&D Systems, Inc. Minneapolis, Minn., USA) was used to estimate the IL-2 concentrations. Amount of IL-2 secreted by cells stimulated with PHA was considered as a 100% maximal signal and the decrease in amount of IL-2 secreted by cells treated with the test compounds was expressed as percent inhibition of the maximal signal. The dose response data was analyzed using 4-parametric sigmoidal dose response (variable slope) curve—fit.

Row | IC50 | SMILES
1 | > 1000 nM | Cn1nc(-c2cc(C3CC3)cnc2-c2ccc(NC(=O)c3c(F)cccc3F)cc2)oc1=O [Example 67, N-(4-(5-Cyclopropyl-3-(4-methyl-5-oxo-4,5-dihydro-1,3,4-oxadiazol-2-yl)pyridin-2-yl)phenyl)-2,6-difluorobenzamide]
2 | 100 to 1000 nM | Cc1ncc(-c2nn(C)c(=O)o2)cc1-c1ccc(C(=O)Nc2c(F)cccc2F)n1C [Example 62, N-(2,6-Difluorophenyl)-1-methyl-5-(2-methyl-5-(4-methyl-5-oxo-4,5-dihydro-1,3,4-oxadiazol-2-yl)pyridin-3-yl)-1H-pyrrole-2-carboxamide]
3 | < 100 nM | Cn1nc(-c2cnc(C3CC3)c(-c3ccc(NC(=O)c4c(F)cccc4F)nc3)c2)oc1=O [Example 36, N-(2′-Cyclopropyl-5′-(4-methyl-5-oxo-4,5-dihydro-1,3,4-oxadiazol-2-yl)-[3,3′-bipyridin]-6-yl)-2,6-difluorobenzamide]
4 | > 1000 nM | CCc1ncc(-c2nn(C)c(=O)o2)cc1-c1ccc(C(=O)Nc2c(F)cccc2F)n1C [Example 63, N-(2,6-Difluorophenyl)-5-(2-ethyl-5-(4-methyl-5-oxo-4,5-dihydro-1,3,4-oxadiazol-2-yl)pyridin-3-yl)-1-methyl-1H-pyrrole-2-carboxamide]
5 | < 100 nM | Cn1nc(-c2cnc(C3CC3)c(-c3ccc(C(=O)Nc4c(F)cccc4F)s3)c2)oc1=O [Example 59, 5-(2-Cyclopropyl-5-(4-methyl-5-oxo-4,5-dihydro-1,3,4-oxadiazol-2-yl)pyridin-3-yl)-N-(2,6-difluorophenyl)thiophene-2-carboxamide]
6 | < 100 nM | Cn1nc(-c2cnc(C3CC3)c(-c3ccc(NC(=O)c4c(F)cccc4F)cn3)c2)oc1=O [Example 35, N-(2′-Cyclopropyl-5′-(4-methyl-5-oxo-4,5-dihydro-1,3,4-oxadiazol-2-yl)-[2,3′-bipyridin]-5-yl)-2,6-difluorobenzamide]
7 | < 100 nM | Cn1nc(-c2cnc(C3CC3)c(-c3ccc(NC(=O)c4c(F)cccc4F)cc3)c2)oc1=O [Example 4, N-(4-(2-Cyclopropyl-5-(4-methyl-5-oxo-4,5-dihydro-1,3,4-oxadiazol-2-yl)pyridin-3-yl)phenyl)-2,6-difluorobenzamide]
8 | < 100 nM | Cc1cc(NC(=O)c2c(F)cccc2F)ccc1-c1cc(-c2nn(C)c(=O)o2)cnc1C1CC1 [Example 32, N-(4-(2-Cyclopropyl-5-(4-methyl-5-oxo-4,5-dihydro-1,3,4-oxadiazol-2-yl)pyridin-3-yl)-3-methylphenyl)-2,6-difluorobenzamide]
9 | < 100 nM | CNc1ncc(-c2nn(C)c(=O)o2)cc1-c1ccc(NC(=O)c2c(F)cccc2F)cc1 [Example 10, 2,6-Difluoro-N-(4-(5-(4-methyl-5-oxo-4,5-dihydro-1,3,4-oxadiazol-2-yl)-2-(methylamino)pyridin-3-yl)phenyl)benzamide]
10 | > 1000 nM | Cn1nc(-c2cnc(C3CC3)c(-c3ccc(C(=O)Nc4c(F)cccc4F)o3)c2)oc1=O [Example 45, 5-(2-Cyclopropyl-5-(4-methyl-5-oxo-4,5-dihydro-1,3,4-oxadiazol-2-yl)pyridin-3-yl)-N-(2,6-difluorophenyl)furan-2-carboxamide]
11 | < 100 nM | Cn1nc(-c2cnc(C3CC3)c(-c3cnc(NC(=O)c4c(F)cccc4F)cn3)c2)oc1=O [Example 33, N-(5-(2-Cyclopropyl-5-(4-methyl-5-oxo-4,5-dihydro-1,3,4-oxadiazol-2-yl)pyridin-3-yl)pyrazin-2-yl)-2,6-difluorobenzamide]

Further lines, the compound ahead of its results:

Row | SMILES | IC50
12 | Cc1c(-c2nn(C)c(=O)o2)ccnc1-c1ccc(NC(=O)c2c(F)cccc2F)cc1 [Example 20, 2,6-Difluoro-N-(4-(3-methyl-4-(4-methyl-5-oxo-4,5-dihydro-1,3,4-oxadiazol-2-yl)pyridin-2-yl)phenyl)benzamide] | > 1000 nM
13 | CCc1ncc(-c2nn(C)c(=O)o2)cc1-c1ccc(NC(=O)c2c(F)cncc2F)cc1 [Example 46, N-(4-(2-Ethyl-5-(4-methyl-5-oxo-4,5-dihydro-1,3,4-oxadiazol-2-yl)pyridin-3-yl)phenyl)-3,5-difluoroisonicotinamide] | 100 to 1000 nM
14 | CNc1ncc(-c2nn(C)c(=O)o2)cc1-c1ccc(NC(=O)c2c(F)cccc2F)cc1C [Example 13, 2,6-Difluoro-N-(3-methyl-4-(5-(4-methyl-5-oxo-4,5-dihydro-1,3,4-oxadiazol-2-yl)-2-(methylamino)pyridin-3-yl)phenyl)benzamide] | 100 to 1000 nM
15 | CCc1ncc(-c2nn(C)c(=O)o2)cc1-c1ccc(NCc2c(F)cccc2F)nc1 [Example 41A, 5-(6′-((2,6-Difluorobenzyl)amino)-2-ethyl-[3,3′-bipyridin]-5-yl)-3-methyl-1,3,4-oxadiazol-2(3H)-one] | > 1000 nM
16 | Cn1nc(-c2cncc(-c3ccc(NC(=O)c4c(F)cccc4F)cc3)c2)oc1=O [Example 14, 2,6-Difluoro-N-(4-(5-(4-methyl-5-oxo-4,5-dihydro-1,3,4-oxadiazol-2-yl)pyridin-3-yl)phenyl)benzamide] | > 1000 nM
17 | CCc1cnc(-c2ccc(NC(=O)c3c(F)cccc3F)cc2)cc1-c1nn(C)c(=O)o1 [Example 21, N-(4-(5-Ethyl-4-(4-methyl-5-oxo-4,5-dihydro-1,3,4-oxadiazol-2-yl)pyridin-2-yl)phenyl)-2,6-difluorobenzamide] | > 1000 nM
18 | CNc1ncc(-c2nn(C)c(=O)o2)cc1-c1cnc(NC(=O)c2c(F)cccc2F)cn1 [Example 56, 2,6-Difluoro-N-(5-(5-(4-methyl-5-oxo-4,5-dihydro-1,3,4-oxadiazol-2-yl)-2-(methylamino)pyridin-3-yl)pyrazin-2-yl)benzamide] | > 1000 nM
19 | CCc1ncc(-c2nn(C)c(=O)o2)cc1-c1ccc(NC(=O)c2c(F)cccc2F)cn1 [Example 31, N-(2′-ethyl-5′-(4-methyl-5-oxo-4,5-dihydro-1,3,4-oxadiazol-2-yl)-[2,3′-bipyridin]-5-yl)-2,6-difluorobenzamide] | 100 to 1000 nM
20 | Cn1nc(-c2cc(-c3ccc(NC(=O)c4c(F)cccc4F)cc3)ccn2)oc1=O [Example 26, 2,6-Difluoro-N-(4-(2-(4-methyl-5-oxo-4,5-dihydro-1,3,4-oxadiazol-2-yl)pyridin-4-yl)phenyl)benzamide] | > 1000 nM
21 | Cn1nc(-c2cc(Cl)cc(-c3ccc(NC(=O)c4c(F)cccc4F)cc3)n2)oc1=O [Example 24, N-(4-(4-Chloro-6-(4-methyl-5-oxo-4,5-dihydro-1,3,4-oxadiazol-2-yl)pyridin-2-yl)phenyl)-2,6-difluorobenzamide] | > 1000 nM
22 | CCc1ncc(-c2nn(C)c(=O)o2)cc1-c1ccc(NCc2c(F)cccc2F)cn1 [Example 40, 5-(5-((2,6-Difluorobenzyl)amino)-2′-ethyl-[2,3′-bipyridin]-5′-yl)-3-methyl-1,3,4-oxadiazol-2(3H)-one] | 100 to 1000 nM
23 | CCc1ncc(-c2nn(C)c(=O)o2)cc1-c1ccc(NC(=O)c2ccncc2C)cc1 [Example 51, N-(4-(2-Ethyl-5-(4-methyl-5-oxo-4,5-dihydro-1,3,4-oxadiazol-2-yl)pyridin-3-yl)phenyl)-3-methylisonicotinamide] | > 1000 nM
24 | CNc1ncc(-c2nn(C)c(=O)o2)cc1-c1ccc(NC(=O)c2c(C)cccc2F)cc1 [Example 12, 2-Fluoro-6-methyl-N-(4-(5-(4-methyl-5-oxo-4,5-dihydro-1,3,4-oxadiazol-2-yl)-2-(methylamino)pyridin-3-yl)phenyl)benzamide] | < 100 nM
25 | CCc1ncc(-c2nn(C)c(=O)o2)cc1-c1ccc(NC(=O)c2c(F)cccc2F)cc1 [Example 2, N-(4-(2-ethyl-5-(4-methyl-5-oxo-4,5-dihydro-1,3,4-oxadiazol-2-yl)pyridin-3-yl)phenyl)-2,6-difluorobenzamide] | < 100 nM
26 | COc1ncc(-c2nn(C)c(=O)o2)cc1-c1ccc(NC(=O)c2c(F)cccc2F)cc1 [Example 6, 2,6-Difluoro-N-(4-(2-methoxy-5-(4-methyl-5-oxo-4,5-dihydro-1,3,4-oxadiazol-2-yl)pyridin-3-yl)phenyl)benzamide] | < 100 nM
27 | CCc1ncc(-c2ccc(NC(=O)c3c(F)cccc3F)cc2)cc1-c1nn(C)c(=O)o1 [Example 68, N-(4-(6-Ethyl-5-(4-methyl-5-oxo-4,5-dihydro-1,3,4-oxadiazol-2-yl)pyridin-3-yl)phenyl)-2,6-difluorobenzamide] | > 1000 nM
28 | Cn1nc(-c2cnc(C(F)(F)F)c(-c3ccc(NC(=O)c4c(F)cccc4F)nc3)c2)oc1=O [Example 38, 2,6-Difluoro-N-(5′-(4-methyl-5-oxo-4,5-dihydro-1,3,4-oxadiazol-2-yl)-2′-(trifluoromethyl)-[3,3′-bipyridin]-6-yl)benzamide] | 100 to 1000 nM
29 | CCc1ncc(-c2nn(C)c(=O)o2)cc1-c1ccc(NC(=O)c2c(C)cccc2F)cc1 [Example 47, N-(4-(2-Ethyl-5-(4-methyl-5-oxo-4,5-dihydro-1,3,4-oxadiazol-2-yl)pyridin-3-yl)phenyl)-2-fluoro-6-methylbenzamide] | 100 to 1000 nM
30 | CCc1ncc(-c2nn(C)c(=O)o2)cc1-c1cnc(NC(=O)c2c(F)cccc2Cl)cn1 [Example 54, 2-Chloro-N-(5-(2-ethyl-5-(4-methyl-5-oxo-4,5-dihydro-1,3,4-oxadiazol-2-yl)pyridin-3-yl)pyrazin-2-yl)-6-fluorobenzamide] | < 100 nM
31 | CCc1ncc(-c2nn(C)c(=O)o2)cc1-c1ccc(NC(=O)c2c(F)cccc2Cl)cc1 [Example 48, 2-Chloro-N-(4-(2-ethyl-5-(4-methyl-5-oxo-4,5-dihydro-1,3,4-oxadiazol-2-yl)pyridin-3-yl)phenyl)-6-fluorobenzamide] | 100 to 1000 nM
